Assay results reported in US9573972B2, “Nurotoxic sterol glycosides” (priority 2008, dated 2017).
“Also recorded” adds a separate entry of the source.

Experiments:
Active Caspase-3 = assay: Anti-active caspase-3 immunofluorescence; type: in vivo, mouse
Description: Tissue-mounted slides were processed for fluorescence microscopy as follows: Sections were rinsed in coplin jars for 45 minutes at room temperature (RT) in three changes of PBS. Sections were then incubated at RT for 30 minutes in a blocking permeabilization solution made of 5% normal goat serum (NGS), 5% normal rabbit serum (NRS) or 5% BlokHen II (Ayes Labs, Inc., Tigard, Oreg.), 0.05% Triton X-100 and PBS. Subsequently, the blocking solution was tipped off and the slides were rinsed in PBS for 2 minutes. […]

[1] = Body weights of SG-fed mice; type: in vivo, mouse; details: SG-fed vs age-matched controls; SG 1000 μg per pellet daily for 15 weeks
Source text: Five-month old male CD-1 mice (30.1-35.7 g, 7.5 cm-8.8 cm) were purchased from Charles River (Wilmington, Mass.). Adult mice were chosen to mimic the mean age of onset of ALS-PDC (Kurland, L. T. (1988a) Trends Neurosci. 11, 51-4; Kurland, L. T., et al. (1994) Amyotrophic lateral sclerosis-parkinsonism-dementia complex on Guam: epidemiologic and etiological perspectives. 109-131). Thirty mice for the SG study were randomly divided into 2 groups (14 control and 16 experimental animals). All animals were housed singly in a virus-free barrier facility in a room maintained at 22° C. under a 12 hour light/dark cycle. The mice were provided ad libitum access to food and water.
The synthetic SG was mixed with finely ground Purina Chow mouse pellets (Mouse Diet™, Purina) to create the experimental pellets with a SG content of 1000 μg per pellet. Dry materials were blended with a sterile silicon spatula. For every 5 g of standard feed, 2.5 mL of doubly-distilled water (dd)H2O was added and the dough was kneaded and round up into pellets. A single sterol glucoside containing pellet was placed in the feeding tray each morning before the addition of regular mouse chow (ad libitum). All experimental pellets were entirely consumed by the mice each day. […] SG feeding was conducted daily for 15 weeks and mice were behaviorally monitored until sacrifice at 35 weeks (time point 1) or 52 weeks (time point 2).

Structure (SMILES): CC[C@H](/C=C/[C@@H](C)[C@H]1CC[C@H]2[C@@H]3CC=C4C[C@@H](O[C@@H]5O[C@H](CO)[C@@H](O)[C@H](O)[C@H]5O)CC[C@]4(C)[C@H]3CC[C@]12C)C(C)C [SG, Stigmasterol β-D-Glucopyranoside]
- Apoptotic cells over time (Active Caspase-3; SG-fed group over time (35 to 52 wk)): Apoptotic cells (SG-fed group over time) (ns)
- Anti-active caspase 3 immunoreactive cells (Active Caspase-3; SG-fed vs control, Time-point 2 (52 wk)): did not reach significance and (ns)
- Body weights [1]: normal weight gain; also recorded: not significantly different
